≈ marks a conversion by molar mass, not a printed value. Where a SMILES comes first, the peptide text is derived from it.
Experiments:
Yej^+rimL^− strain [1] = assay: organism not typed; assay type: cell-based; details: for Diameters of the inhibition zones, Trypsin-Treated Group, Yej^+rimL^− / bacteriostatic activity after trypsin treatment, Yej^+rimL^−: supernatant treated with trypsin 50 μg/mL, 37 °C, 3 h; for Diameters of the inhibition zones, Trypsin-Treated Group, Yej^+rimL^−: pH 6.8, 37 °C 24 h; for Diameters of the inhibition zones, Trypsin-Treated Group, Yej^+rimL^− / bacteriostatic activity after trypsin treatment, Yej^+rimL^− / Diameters of the inhibition zones, Trypsin-Untreated Group, Yej^+rimL^−: agar diffusion; for Diameters of the inhibition zones, Trypsin-Treated Group, Yej^+rimL^− / Diameters of the inhibition zones, Trypsin-Untreated Group, Yej^+rimL^−: dash = no zone; for Diameters of the inhibition zones, Trypsin-Untreated Group, Yej^+rimL^−: 200 μL fermentation supernatant, 1 × 10^5 CFU/mL, 4 °C 1 h then 37 °C 24 h, chloramphenicol 100 μL of 0.25 μg/mL
Excerpt: To analyze the antimicrobial ability of the variants, we measured the inhibition zones of all 21 variants by the agar diffusion method. The peptide moiety of McC was recognized by a YejABEf-peptide transporter. The rimL contains an acetyltransferase domain homologous to MccE which can detoxify and provide resistance to McC [17]. The overexpression of the YejABEF gene cluster and rimL gene knockout made the strain hypersensitive to McC. Therefore, the Yej^+rimL^− strain was selected as the sensitive indicator bacterial strain.
(§1) The pH was adjusted to 6.8.
(§2) The fermentation supernatants and pure products were used to characterize the bacteriostatic effects of McC variants by the agar diffusion and microdilution methods. Yej^+rimL^− and E. coli K88 indicator bacteria were applied. The serotype of E. coli K88 was O149:K91, K88ac, a clinically isolated strain, and provided by the College of Veterinary Medicine, China Agricultural University. The indicated bacteria were diluted to 1 × 10^5 CFU/mL and added to plate medium cooled to 50 °C. Two hundred microliters of supernatants were added to each dish, and diffusion was performed at 4 °C for 1 h. After incubation at 37 °C for 24 h, the diameters of the inhibition zones were determined. One hundred microliters of 0.25 μg/mL chloramphenicol was used as a control. The MICs of the pure McC variants were determined by microdilution in a sterilized 96-well microplate. The McC variants were serially diluted 2 times in 96-well microplates with LB medium. The concentrations of the McC variants ranged from 0.125 to 100 µg/mL. Each well was inoculated with 10 μL of overnight bacterial culture at a concentration of 1.0 × 10^5 CFU/mL and incubated at 37 °C for 24 h. A microplate reader was used to automatically observe changes in absorbance at 600 nm in order to monitor bacterial growth. A positive control group (including inoculated medium) and a negative control group (with medium only) were included. The MIC was determined as the lowest concentration of McC variant that inhibited bacterial growth (preventing an increase in the absorbance reading). All tests were performed in triplicate.

E. coli K88 = assay: microbe, parasite or virus in culture; assay type: cell-based; details: for Diameters of the inhibition zones, Trypsin-Untreated Group, K88: 200 μL fermentation supernatant, 1 × 10^5 CFU/mL, 4 °C 1 h then 37 °C 24 h, chloramphenicol 100 μL of 0.25 μg/mL
Procedure: as §1, §2

[2] = HPLC retention time according to hydrophobicity; assay type: physicochemical; details: chromatographic, C18 5 μm 9.4 × 250 mm; A 0.1% trichloroacetic acid, B 0.1% trichloroacetic acid with 90% acetonitrile; linear 5% B to 50% B; 1 mL/min; 35 °C; 280 nm; varies according to hydrophobicity
Procedure: To find the separation peaks of the variants, wildtype McC and blank control fermentation broth samples were tested by HPLC. The separation peaks with obvious differences (those with retention times of 11 min and 17 min) were purified and the antimicrobial activity was determined. […] Therefore, the molecular weight was further analyzed by mass spectrometry, and the separation peak at approximately 17 min was confirmed to be that of the desired purified McC. Since the mutations in this study involved only one amino acid and had few effects on the properties of the peptides, we predicted that the separation peaks of the variants should fluctuate around approximately 17 min according to their hydrophobicity. […] The purity of the purified variants was determined by HPLC to be greater than 80% (Table 3).
The lyophilized supernatants were dissolved in deionized water, filtered through 0.22 μm aqueous-phase filter membranes, and purified by high-performance liquid chromatography (HPLC, Agilent Technologies Inc., Palo Alto, CA, USA) with C18 column (5 μm 9.4 × 250 mm, Agilent Technologies Inc., Palo Alto, CA, USA). The mobile phase was composed of 0.1% (v/v) trichloroacetic acid (solvent A) and 0.1% (v/v) trichloroacetic acid with 90% (v/v) acetonitrile (solvent B). A linear gradient from 95% A/5% B to 50% A/50% B was used with a flow rate of 1 mL/min, a sample volume of 10 μL, a column temperature of 35 °C, and a detection wavelength of 280 nm. Electrospray ionization mass spectrometry (ESI-MS) was used to compare the McC variant masses with the expected masses. The relationships between the relative abundances and the mass-to-charge ratios (m/z) of the ions were determined to confirm the identities of the experimentally produced McC variants.

[3] = Remaining amount by RP-HPLC after pepsin treatment; assay type: in vitro ADME; details: isolated enzyme pepsin; pepsin treated for 3 h; read-out RP-HPLC; Table S2
Procedure: (§3) To test whether the variants were tolerant to trypsin or other digestive enzymes, the amount of the remaining McC and its analogues remaining was determined by RP-HPLC after trypsin, pepsin, and chymotrypsin treated for 3 h (Table S2), and the inhibition zones of trypsin-treated variants were tested using the same method (Table 2).

[4] = Remaining amount by RP-HPLC after chymotrypsin treatment; assay type: in vitro ADME; details: isolated enzyme chymotrypsin; chymotrypsin treated for 3 h; read-out RP-HPLC; Table S2
Procedure: as §3

Yej^+rimL^− strain [5] = assay type: cell-based; details: HPLC-purified variants; microdilution in LB, 96-well; 0.125 to 100 µg/mL; 1.0 × 10^5 CFU/mL; 37 °C 24 h; absorbance 600 nm; triplicate
Procedure: To accurately characterize the bacteriostatic abilities of the variants, the MICs of the pure McC variants toward the McCsensitive strain Yej^+rimL^− were determined. The MICs of all variants were lower than that of wild-type McC. From smallest to largest MIC, the above five variants were in the following order: R2A, R2T, R2Q, R2S, and R2H. […] Although the diameter of the inhibitory zone of R2M was smaller than those of the above five variants, the bacteriostatic ability of R2M was second only to R2T/R2Q, and the MIC was 50 μg/mL.
as §2

| SMILES | zone of inhibition at 0.25 µg/mL (Yej^+rimL^− strain [1]; read-out: Diameters of the inhibition zones, Trypsin-Untreated Group, Yej^+rimL^−) | Diameters of the inhibition zones, Trypsin-Treated Group, Yej^+rimL^− (Yej^+rimL^− strain [1]) | zone of inhibition at 0.25 µg/mL (E. coli K88; Escherichia coli, K88, read-out: Diameters of the inhibition zones, Trypsin-Untreated Group, K88) | Diameters of the inhibition zones, Trypsin-Treated Group, K88 (E. coli K88; supernatant treated with trypsin 50 μg/mL, 37 °C, 3 h, pH 6.8, agar diffusion, 37 °C 24 h, dash = no zone) | Retention Time [2] | remaining at 3 h [3] | remaining at 3 h [4] | bacteriostatic activity after trypsin treatment, Yej^+rimL^− (Yej^+rimL^− strain [1]) | Diameters of the inhibition zones, Trypsin-Untreated Group, Yej^+rimL^− (Yej^+rimL^− strain [1]) | MIC (Yej^+rimL^− strain [5]) | Diameters of the inhibition zones, Trypsin-Untreated Group, K88 (E. coli K88; agar diffusion, dash = no zone) |
| --- | --- | --- | --- | --- | --- | --- | --- | --- | --- | --- | --- |
| O=C(N[C@H](CO)[C@H](O)c1ccc([N+](=O)[O-])cc1)C(Cl)Cl [Chloramphenicol, reference compound] | 23.4 mm | 20.96 mm | 23.6 mm | 22.79 mm |  |  |  |  |  |  |  |
| CSCC[C@H](NC=O)C(=O)N[C@@H](CC(=O)O)C(=O)N[C@H](C(=O)NCC(=O)N[C@@H](CC(N)=O)C(=O)N[C@@H](C)C(=O)N[C@@H](CC(=O)O)C(=O)NP(=O)(OCCCN)OC[C@H]1O[C@@H](n2cnc3c(N)ncnc32)[C@H](O)[C@@H]1O)[C@@H](C)O (stereo partly drawn) [R2D] (HELM PEPTIDE1{[O=C[*:2]].M.D.T.G.N.A.[NCCCOP(=O)(NC(=O)[C@H](CC(=O)O)N[*:1])OC[C@H]1O[C@@H](n2cnc3c(N)ncnc32)[C@H](O)[C@@H]1O]}$$$$V2.0) |  | 14.11 mm |  |  | 17.625 min | 83.9 ± 1.42% | 42.4 ± 1.07% | exhibited antibacterial effects | 17.71 mm | >100 µg/mL |  |
| CSCC[C@H](NC=O)C(=O)N[C@@H](Cc1ccccc1)C(=O)N[C@H](C(=O)NCC(=O)N[C@@H](CC(N)=O)C(=O)N[C@@H](C)C(=O)N[C@@H](CC(=O)O)C(=O)NP(=O)(OCCCN)OC[C@H]1O[C@@H](n2cnc3c(N)ncnc32)[C@H](O)[C@@H]1O)[C@@H](C)O (stereo partly drawn) [R2F] (HELM PEPTIDE1{[O=C[*:2]].M.F.T.G.N.A.[NCCCOP(=O)(NC(=O)[C@H](CC(=O)O)N[*:1])OC[C@H]1O[C@@H](n2cnc3c(N)ncnc32)[C@H](O)[C@@H]1O]}$$$$V2.0) |  | 10.95 mm |  |  |  | 82.3 ± 0.94% | 41.1 ± 0.98% |  | 13.05 mm |  | 14.34 mm |
| CSCC[C@H](NC=O)C(=O)NCC(=O)N[C@H](C(=O)NCC(=O)N[C@@H](CC(N)=O)C(=O)N[C@@H](C)C(=O)N[C@@H](CC(=O)O)C(=O)NP(=O)(OCCCN)OC[C@H]1O[C@@H](n2cnc3c(N)ncnc32)[C@H](O)[C@@H]1O)[C@@H](C)O (stereo partly drawn) [R2G] (HELM PEPTIDE1{[O=C[*:2]].M.G.T.G.N.A.[NCCCOP(=O)(NC(=O)[C@H](CC(=O)O)N[*:1])OC[C@H]1O[C@@H](n2cnc3c(N)ncnc32)[C@H](O)[C@@H]1O]}$$$$V2.0) |  | 14.15 mm |  |  | 17.253 min | 85.89 ± 0.79% | 45.6 ± 1.31% | exhibited antibacterial effects | 18.86 mm | >100 µg/mL |  |
| CSCC[C@H](NC=O)C(=O)N[C@@H](CCCCN)C(=O)N[C@H](C(=O)NCC(=O)N[C@@H](CC(N)=O)C(=O)N[C@@H](C)C(=O)N[C@@H](CC(=O)O)C(=O)NP(=O)(OCCCN)OC[C@H]1O[C@@H](n2cnc3c(N)ncnc32)[C@H](O)[C@@H]1O)[C@@H](C)O (stereo partly drawn) [R2K] (HELM PEPTIDE1{[O=C[*:2]].M.K.T.G.N.A.[NCCCOP(=O)(NC(=O)[C@H](CC(=O)O)N[*:1])OC[C@H]1O[C@@H](n2cnc3c(N)ncnc32)[C@H](O)[C@@H]1O]}$$$$V2.0) |  | 0 mm |  |  |  | 87.69 ± 0.68% | 41.4 ± 0.73% |  | 20.91 mm |  | 16.95 mm |
| CSCC[C@H](NC=O)C(=O)N[C@@H](CC(C)C)C(=O)N[C@H](C(=O)NCC(=O)N[C@@H](CC(N)=O)C(=O)N[C@@H](C)C(=O)N[C@@H](CC(=O)O)C(=O)NP(=O)(OCCCN)OC[C@H]1O[C@@H](n2cnc3c(N)ncnc32)[C@H](O)[C@@H]1O)[C@@H](C)O (stereo partly drawn) [R2L] (HELM PEPTIDE1{[O=C[*:2]].M.L.T.G.N.A.[NCCCOP(=O)(NC(=O)[C@H](CC(=O)O)N[*:1])OC[C@H]1O[C@@H](n2cnc3c(N)ncnc32)[C@H](O)[C@@H]1O]}$$$$V2.0) |  | 0 mm |  |  | 19.425 min | 79.25 ± 0.62% | 39.2 ± 0.75% |  | 14.40 mm | >100 µg/mL |  |
| CSCC[C@H](NC=O)C(=O)N[C@H](C(=O)N[C@H](C(=O)NCC(=O)N[C@@H](CC(N)=O)C(=O)N[C@@H](C)C(=O)N[C@@H](CC(=O)O)C(=O)NP(=O)(OCCCN)OC[C@H]1O[C@@H](n2cnc3c(N)ncnc32)[C@H](O)[C@@H]1O)[C@@H](C)O)C(C)C (stereo partly drawn) [R2V] (HELM PEPTIDE1{[O=C[*:2]].M.V.T.G.N.A.[NCCCOP(=O)(NC(=O)[C@H](CC(=O)O)N[*:1])OC[C@H]1O[C@@H](n2cnc3c(N)ncnc32)[C@H](O)[C@@H]1O]}$$$$V2.0) |  | 14.62 mm |  |  | 18.151 min | 79 ± 1.24% | 39.1 ± 1.05% | exhibited antibacterial effects | 21.34 mm | 50 µg/mL (≈ 44.6 µM) |  |
| CSCC[C@H](NC=O)C(=O)N[C@@H](Cc1ccc(O)cc1)C(=O)N[C@H](C(=O)NCC(=O)N[C@@H](CC(N)=O)C(=O)N[C@@H](C)C(=O)N[C@@H](CC(=O)O)C(=O)NP(=O)(OCCCN)OC[C@H]1O[C@@H](n2cnc3c(N)ncnc32)[C@H](O)[C@@H]1O)[C@@H](C)O (stereo partly drawn) [R2Y] (HELM PEPTIDE1{[O=C[*:2]].M.Y.T.G.N.A.[NCCCOP(=O)(NC(=O)[C@H](CC(=O)O)N[*:1])OC[C@H]1O[C@@H](n2cnc3c(N)ncnc32)[C@H](O)[C@@H]1O]}$$$$V2.0) |  | 14.93 mm |  |  | 18.591 min | 85.22 ± 0.72% | 45.4 ± 1.18% | exhibited antibacterial effects | 18.87 mm | >100 µg/mL |  |
